Among the test systems are SF-295 CNS; M14 melanoma; U251 CNS; 786-0 renal; K-562 leukemia; SW-620 colon; UACC-257 melanoma; SR leukemia; MDA-MB-231 breast; HT29 colon.
What all share (assay): NCI anticancer screen, dose series, 48 h

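All cell lines were grown in 96-well plates and treated with compound for 48 hours. Here, GI50 denotes the concentration required for 50% inhibition of growth. TGI is the concentration that stops growth completely.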 Where only a bound is given, the exact number is not on record here.

As to `Nc1c(F)cc(-c2nc3cc(F)ccc3[se]2)cc1Br`, the GI50 was 12.7 µM in the experiment with SF-295 CNS; 16.5 µM in the experiment with M14 melanoma; 12 µM in the experiment with U251 CNS; 10.6 µM in the experiment on 786-0 renal; 49.2 µM in the experiment on K-562 leukemia; > 54.5 µM in the experiment with SW-620 colon. Also, the GI50 in the experiment with UACC-257 melanoma was > 100 µM; with SR leukemia, < 0.0162 µM; in the experiment with MDA-MB-231 breast, 0.306 µM; in the experiment with HT29 colon, 0.0651 µM. Further, the TGI with SF-295 CNS is > 100 µM; in the experiment with M14 melanoma, > 100 µM; in the experiment on U251 CNS, 70.5 µM; with 786-0 renal it was 50.4 µM; in the experiment on K-562 leukemia, > 100 µM; in the experiment on SW-620 colon, > 100 µM. Moreover, the TGI in the experiment on UACC-257 melanoma was > 100 µM; with SR leukemia, > 100 µM; in the experiment with MDA-MB-231 breast, 7.79 µM.
As to `O=C(/C=C/OC(=O)c1cccc(Cl)c1)c1ccc(Cl)cc1`, the GI50 in the experiment on SF-295 CNS is 27.3 µM; with M14 melanoma, 34.6 µM; with U251 CNS it was 38.1 µM; in the experiment with 786-0 renal it was > 91.7 µM; with K-562 leukemia, 34.5 µM; with SW-620 colon, 29.4 µM. Moreover, the GI50 was 97.6 µM in the experiment on UACC-257 melanoma, 22.9 µM in the experiment on SR leukemia, 52.2 µM in the experiment with MDA-MB-231 breast and 50 µM in the experiment on HT29 colon. Further, the TGI in the experiment on SF-295 CNS is > 80.1 µM; in the experiment with M14 melanoma it was > 100 µM; in the experiment with U251 CNS it was > 100 µM; with 786-0 renal, > 100 µM; in the experiment on K-562 leukemia, > 100 µM; in the experiment with SW-620 colon it was > 82 µM. Moreover, the TGI was > 100 µM with UACC-257 melanoma, > 92 µM in the experiment with SR leukemia, > 100 µM in the experiment on MDA-MB-231 breast and > 100 µM with HT29 colon.
In the case of `COc1ccc(N(C)c2nc(Cl)nc3cnn(C)c23)cc1`, the GI50 in the experiment on SF-295 CNS, in the experiment with M14 melanoma, in the experiment on U251 CNS, in the experiment with 786-0 renal, in the experiment on K-562 leukemia and in the experiment on SW-620 colon was < 0.01 µM each time. Also, the GI50 in the experiment with UACC-257 melanoma was 29.8 µM; with SR leukemia it was < 0.01 µM; with MDA-MB-231 breast it was 0.0262 µM; with HT29 colon, < 0.01 µM. The TGI with SF-295 CNS, in the experiment on M14 melanoma, with U251 CNS, with 786-0 renal, in the experiment on K-562 leukemia and in the experiment on SW-620 colon was > 100 µM in each case. In addition, the TGI in the experiment on UACC-257 melanoma, in the experiment on SR leukemia, with MDA-MB-231 breast and in the experiment on HT29 colon was > 100 µM each time.
Turning to `CCCN1CCC(c2ccc(Nc3nc(Nc4cc(F)ccc4C(N)=O)c4cc[nH]c4n3)c(OC)c2)CC1`, the GI50 was 3.86 µM in the experiment with SF-295 CNS; 1.58 µM with M14 melanoma; 0.509 µM in the experiment on U251 CNS; 3.07 µM in the experiment on 786-0 renal; 0.681 µM in the experiment on K-562 leukemia; 0.099 µM in the experiment with SW-620 colon. Also, the GI50 was 0.572 µM in the experiment on UACC-257 melanoma, 0.0131 µM in the experiment with SR leukemia, 4.04 µM with MDA-MB-231 breast and 0.0124 µM in the experiment on HT29 colon. In addition, the TGI with SF-295 CNS turned out to be 8.37 µM; in the experiment with M14 melanoma, 5.48 µM; in the experiment on U251 CNS it was 1.97 µM; in the experiment on 786-0 renal, 7.52 µM; with K-562 leukemia, 2.8 µM; in the experiment on SW-620 colon it was 3.04 µM. Besides, the TGI is 5.2 µM in the experiment on UACC-257 melanoma, 4.54 µM with SR leukemia, 8.82 µM in the experiment with MDA-MB-231 breast and 1.06 µM with HT29 colon.
Take `COc1ccc2c(c1OC(C)=O)C1=CC(=O)CCC13CCNC3C2` (centres undefined): the TGI with SF-295 CNS, in the experiment on M14 melanoma, with U251 CNS, with 786-0 renal, in the experiment with K-562 leukemia and in the experiment with SW-620 colon was > 100 µM each time. Besides, the TGI in the experiment on UACC-257 melanoma, in the experiment with SR leukemia, with MDA-MB-231 breast and with HT29 colon was > 100 µM each time.
As to `COC1=CC(=O)c2nc(Cl)ccc2C1=O`, the GI50 in the experiment with SF-295 CNS is 1.69 µM; with M14 melanoma, 1.92 µM; in the experiment on U251 CNS, 1.66 µM; with 786-0 renal it was 2.02 µM; with K-562 leukemia it was 2.98 µM; in the experiment with SW-620 colon, 1.79 µM. Also, the GI50 is 1.68 µM in the experiment on UACC-257 melanoma, 3.17 µM in the experiment with SR leukemia, 1.84 µM in the experiment with MDA-MB-231 breast and 2.21 µM in the experiment with HT29 colon. Also, the TGI with SF-295 CNS is 3.51 µM; in the experiment with M14 melanoma, 3.52 µM; in the experiment on U251 CNS it was 3.03 µM; in the experiment on 786-0 renal, 3.76 µM; in the experiment on K-562 leukemia it was > 100 µM; in the experiment on SW-620 colon, 3.3 µM. Also, the TGI is 3.12 µM in the experiment on UACC-257 melanoma, > 100 µM in the experiment with SR leukemia, 6.44 µM with MDA-MB-231 breast and 4.74 µM in the experiment with HT29 colon.
As for `COc1cc2c(cc1C)NC(=O)/C2=C\c1c[nH]c2ccccc12`, the GI50 in the experiment on SF-295 CNS was 6.28 µM; in the experiment with M14 melanoma, 12.7 µM; in the experiment on U251 CNS it was 13.6 µM; in the experiment with 786-0 renal it was 17.8 µM; with K-562 leukemia, 8.07 µM; in the experiment with SW-620 colon, 20.3 µM. Further, the GI50 in the experiment on UACC-257 melanoma is 21.9 µM; with SR leukemia, 8.91 µM; with MDA-MB-231 breast, 4.3 µM; in the experiment with HT29 colon, 5.27 µM. Besides, the TGI turned out to be 38 µM in the experiment with SF-295 CNS; 46.1 µM in the experiment with M14 melanoma; 37.9 µM in the experiment with U251 CNS; 49.2 µM in the experiment on 786-0 renal; 51.5 µM in the experiment with K-562 leukemia; 53.3 µM with SW-620 colon. The TGI in the experiment with UACC-257 melanoma was 43.8 µM; in the experiment with SR leukemia, 42.6 µM; in the experiment on MDA-MB-231 breast, 21.5 µM; in the experiment on HT29 colon it was 55.9 µM.

The record behind these values is PubChem BioAssay (NCI).
